Assay [1] addresses T1, enkephalinase (Rattus norvegicus, UniProt P07861).
T1 construct: homogenizing corpus striatum of rat brain and by partial purification of the brain homogenate; from tissue; host or cells: rat brain corpus striatum, homogenate partially purified by the method of Gorenstein et al
T1 sequence (P07861 1-750): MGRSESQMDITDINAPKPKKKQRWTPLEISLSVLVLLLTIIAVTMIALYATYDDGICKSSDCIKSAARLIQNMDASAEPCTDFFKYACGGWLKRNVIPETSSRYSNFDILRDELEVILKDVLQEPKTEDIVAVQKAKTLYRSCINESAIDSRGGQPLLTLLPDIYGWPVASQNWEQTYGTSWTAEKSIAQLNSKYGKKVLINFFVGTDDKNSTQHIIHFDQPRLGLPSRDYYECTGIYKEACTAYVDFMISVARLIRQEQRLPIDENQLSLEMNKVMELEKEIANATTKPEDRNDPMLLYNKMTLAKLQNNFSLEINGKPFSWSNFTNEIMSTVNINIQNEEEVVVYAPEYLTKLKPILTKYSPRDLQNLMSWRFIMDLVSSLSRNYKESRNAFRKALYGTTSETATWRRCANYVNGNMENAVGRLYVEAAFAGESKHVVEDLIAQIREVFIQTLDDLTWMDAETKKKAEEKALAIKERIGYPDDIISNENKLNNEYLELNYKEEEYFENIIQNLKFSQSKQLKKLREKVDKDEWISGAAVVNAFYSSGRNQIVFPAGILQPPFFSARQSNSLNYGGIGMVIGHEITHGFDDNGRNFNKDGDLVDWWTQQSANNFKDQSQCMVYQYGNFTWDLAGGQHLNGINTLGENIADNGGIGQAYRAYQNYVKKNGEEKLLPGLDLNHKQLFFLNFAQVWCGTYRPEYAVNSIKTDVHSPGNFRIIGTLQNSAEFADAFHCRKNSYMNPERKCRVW
Kind of assay: Inhibitory activity against enkephalinase (Test 1). It counts as biochemical. The settings on record: enkephalinase from corpus striatum of rat brain; substrate methionine-enkephaline; 37° C., 1 hour; pH 7.7. The method, then:
Inhibitory activity against enkephalinase were tested.
A preparation of enkephalinase was made by homogenizing corpus striatum of rat brain and by partial purification of the brain homogenate according to the method of Gorenstein et al (see the "Life Science" Vol. 25, 2065~2070 (1979) Pergamon Press, U.S.A.).
A test compound was dissolved in a mixture of Trishydrochloride buffered solution (pH 7.7) and an aqueous 1% Triton X100 (an active surfectant) to such a concentration that the added quantity of the test compound amounted to one-tenth of the volume of said mixture. To the solution of the test compound so prepared was added the enkephalinase, followed by incubation for five minutes at ambient temperature and further by addition of methionine-enkephaline as the substrate. The admixture so obtained was incubated at 37° C. for 1 hour and then subjected to a high-performance liquid chromatography in such a manner that the Tyr-Gly-GLy (a fragment of the methionine-enkephaline) formed by the enzymatic degradation of methionine-enkephaline was isolated in some fractions of the eluate and the quantity of Tyr-Gly-GLy was determined by an electro-chemically analysing detector. In this way, IC50 value of the test compound, namely the dose of the test compound required for 50% inhibition of the enkephalinase was measured.

For assay [2], the system named is mice of ddy-strain. Kind of assay: Analgesic activity by the acetic acid-writhing method (Test 3). It counts as in vivo, mouse. As to conditions: for Number of Writhings (Average value ± standard error): 30 minutes before 0.6% acetic acid i.p., counted during 15 minutes; for Suppression of writhing reactions: compared to the control group. The source says: Analgesic activity of test compound was estimated according to the acetic acid-writhing method.
Mice groups each containing 10 mice of ddy-strain (male, 5 weeks-aged, average body weight about 20 grams) were employed as the test animal. A suspension of the test compound, D-Phe-AHPA suspended in an aqueous solution containing 0.5% of gum arabic and 7% of an active surfectant (consisting of the reaction products of hydrogenated castor oil with polyoxyethylene, commercially available under a registered tradename "Nikkol HCO-60", a product of Nihon Nyukazai Co., Ltd., Japan) was subcutaneously injected into each mouse at a dosage of 30, 150 or 250 mg/kg of the test compound. The above-mentioned suspension so subcutaneously injected was containing the test compound at such a concentration that 0.2 ml of said suspension as injected into each mouse provided the dosage of 30 mg/kg, 150 mg/kg or 250 mg/kg of the test compound. 30 Minutes later, […] of an aqueous solution of 0.6% of acetic acid was injected intraperitoneally into the mice. 5 Minutes after the injection of the aqueous acetic acid, estimation was commenced to count the number of the writhing reaction of the treated mice (the motions such as abdominal constrictions and extensions of the treated mice as induced by the injection of acetic acid) which took place during the subsequent 15 minutes (see the Japanese medical book "Iyaku Kaihatsu Koza" Vol. 5 pages 282~286, published from Chijin-Shokan in 1971 and an English medicinal journal "Brit. J. Pharmacol." 32, pages 295~310, 1968). For control, another mice groups received the subcutaneous administration of an aqueous solution containing no test compound but containing 0.5% of gum arabic and 7% of the active surfectant (Nikkol HCO-60). The rate (%) of suppressing the writhing reactions was evaluated as compared to the control group. "Students-t-test" was employed for the statistical analysis of the test results.

Assay [3] relates to morphine analgesia-non-effective Wistar rats. Nature of the assay: Effect of enhancing morphine analgesia, tail-flick latency (Test 2). The assay is classed as in vivo, rat. The method, then: Effect of enhancing morphine analgesia was tested.
To Wistar rats (10 week-age, male, body weight 250~300 g) was given intraperitoneally morphine at a dose of 0.5 mg/kg, and these rats receiving the morphine were classified into the group of morphine analgesia-effective rats and the group of morphine analgesia-non-effectiverats according to the classification method described in the "Showa Igakukai Zasshi" Vol. 39, No. 5, pages 537~542 (1979). […] The effect of analgesia was evaluated according to the method of tail-flick latency of rats described in the "Showa Igakukai Zasshi" Vol. 39, No. 5, pages 537~542 (1979). The evaluation of pain threshold of rats according to the tail-flick latency method was made as follows: Radiant heat stimulus was applied to the region of the rat tail which positioned 1 cm away from the tail tip and which had been colored black with a black-dye, and the time of latency involved in the tail flick, namely the period of time lapsing between the time of application of the heat stimulus and the time of the reflective flick response of the tail was measured. The quantity of the heat applied was so controlled that the average time of latency of the tail-flick response appearing in the control group of rats (receiving neither the test compound nor the morphine) was about 2.0 seconds. The tests were accomplished as long as the maximum value for the tail-flick latency was 7.0 seconds or less, as otherwise the skin of the rat tail could be damaged by the application of heat. In other words, if the time for the tail-flick latency was longer than 7.0 seconds, the tests were stopped to prevent the damage of the rat tail. The radiant heat stimulus was repeated 5 times for each test rat at an interval of 15 minutes and the times of latency in the flick response of the tail measured in each test were averaged. In each test, 5 rats were used.
The difference in the time of the tail-flick latency between the test rats (receiving 250 mg/kg of the test compound plus 0.5 mg/kg of morphine) and the control rats (receiving 0.5 mg/kg of morphine alone) was calculated, and the effect for enhancement of morphine analgesia was estimated in term of the value of percentages which were calculated by the following equation: [formula]

The test system is the same in assay [4]. Described as above. The assay is classed as in vivo, rat. This is another data set of the same source.

Data on two molecules can be found in US4474764A, “3-Amino-2-hydroxy-4-phenylbutanoic acid derivatives and pharmaceutical composition containing the same” (Zaidan Hojin Biseibutsu Kagaku Kenkyu Kai, priority 1981, dated 1984).

SMILES strings stand for the structures.

In assay [1], `N[C@H](Cc1ccccc1)C(=O)N[C@H](Cc1ccccc1)[C@H](O)C(=O)O` [Compound 10, (2S,3R)-3-N--(R)-phenylalanylamino-2-hydroxy-4-phenylbutanoic acid] yielded an IC50 of 740 µM. Further, the figures for the “Number of Writhings (Average value ± standard error)” value in assay [2] (30 mg/kg s.c.), in assay [2] (150 mg/kg s.c.) and in assay [2] (250 mg/kg s.c.) were 48.3 ± 3.7, 43.9 ± 3.8 and 31.3 ± 8.0, respectively. The “Suppression of writhing reactions” value in assay [2] (30 mg/kg s.c.) worked out at 37.4%; in assay [2] (150 mg/kg s.c.), 43.1%; in assay [2] (250 mg/kg s.c.), 59.4%. Moreover, in assay [2] (30, 150 or 250 mg/kg s.c., compound alone), the “Dose dependence of suppression of acetic acid-writhing reaction” value is on record as “suppressed the acetic acid-writhing reaction in the dosage-depending manner”. Further, the “Morphine Analgesia enhancement” value in assay [3] (250 mg/kg test compound i.p., 10 minutes later 0.5 mg/kg morphine i.p., versus 0.5 mg/kg morphine alone, tail-flick latency) is 35.0%.
Turning to `CN1CC[C@]23c4c5ccc(O)c4O[C@H]2[C@@H](O)C=C[C@H]3[C@H]1C5` [Morphine, morphine], the entries for the “Morphine Analgesia enhancement” value in assay [4] (morphine alone 2 mg/kg (comparative)), in assay [4] (morphine alone 3 mg/kg (comparative)) and in assay [3] (morphine alone 0.5 mg/kg (comparative)) were 28.4%, 35.1% and 0%, respectively.
